Experimental data taken from patent US4129577A (priority 1977, dated 1978).

Assays:
KB cell = format: cell-based, human; conditions: for Activity in μg/ml (ED50 = concentration causing 50% inhibition of growth): kb cells
pigeons [1] = conditions: in vivo
mice = conditions: mouse, in vivo, ip
pigeons [2] = conditions: in vivo, po

Row | SMILES | Activity in μg/ml (ED50 = concentration causing 50% inhibition of growth) (KB cell) | vomiting (pigeons [1]) | times more active than T-2 toxin (KB cell) | toxicity relative to T-2 toxin (mice) | toxicity relative to T-2 toxin (pigeons [2])
1 | CCC(=O)OC1C2OC3C=C(C)C(OC(=O)CC(C)C)CC3(COC(C)=O)C(C)(C1OC(C)=O)C21CO1 (stereo not shown) [PT-2] | 10^-8 μg/ml | – | – | – | –
2 | CC(=O)OCC12CC(OC(=O)CC(C)C)C(C)=CC1OC1C(OC(=O)c3ccccc3)C(OC(C)=O)C2(C)C12CO2 (stereo not shown) [BzT-2] | 10 µg/mL | – | – | – | –
3 | CC(=O)OCC12CC(OC(=O)CC(C)C)C(C)=CC1OC1C(OC(C)=O)C(OC(C)=O)C2(C)C12CO2 (stereo not shown) [AT-2] | 10^-8 μg/ml | virtually completely eliminated | about 5,000 times | less than 1/2 | less than 1/6
